Reference: US20200048267A1, “OGA INHIBITOR COMPOUNDS” (Janssen Pharmaceutica NV, priority 2017, published 2020)

Key:
OGA = biological target: T1, OGA (Homo sapiens, UniProt O60502); assay: OGA cellular assay (ICC detection of O-GlcNAcylated proteins in HEK293 cells inducible for P301L mutant human Tau); type: cell-based; conditions: 6 hours incubation; for EC50: read-out: CELLULAR hOGA, pEC50 (converted)
T1 construct: HEK293 cells inducible for P301L mutant human Tau (isoform 2N4R) were established at Janssen; endogenous in cells; host or cells: HEK293 cells inducible for P301L mutant human Tau (2N4R)
T1 sequence (O60502 1-916): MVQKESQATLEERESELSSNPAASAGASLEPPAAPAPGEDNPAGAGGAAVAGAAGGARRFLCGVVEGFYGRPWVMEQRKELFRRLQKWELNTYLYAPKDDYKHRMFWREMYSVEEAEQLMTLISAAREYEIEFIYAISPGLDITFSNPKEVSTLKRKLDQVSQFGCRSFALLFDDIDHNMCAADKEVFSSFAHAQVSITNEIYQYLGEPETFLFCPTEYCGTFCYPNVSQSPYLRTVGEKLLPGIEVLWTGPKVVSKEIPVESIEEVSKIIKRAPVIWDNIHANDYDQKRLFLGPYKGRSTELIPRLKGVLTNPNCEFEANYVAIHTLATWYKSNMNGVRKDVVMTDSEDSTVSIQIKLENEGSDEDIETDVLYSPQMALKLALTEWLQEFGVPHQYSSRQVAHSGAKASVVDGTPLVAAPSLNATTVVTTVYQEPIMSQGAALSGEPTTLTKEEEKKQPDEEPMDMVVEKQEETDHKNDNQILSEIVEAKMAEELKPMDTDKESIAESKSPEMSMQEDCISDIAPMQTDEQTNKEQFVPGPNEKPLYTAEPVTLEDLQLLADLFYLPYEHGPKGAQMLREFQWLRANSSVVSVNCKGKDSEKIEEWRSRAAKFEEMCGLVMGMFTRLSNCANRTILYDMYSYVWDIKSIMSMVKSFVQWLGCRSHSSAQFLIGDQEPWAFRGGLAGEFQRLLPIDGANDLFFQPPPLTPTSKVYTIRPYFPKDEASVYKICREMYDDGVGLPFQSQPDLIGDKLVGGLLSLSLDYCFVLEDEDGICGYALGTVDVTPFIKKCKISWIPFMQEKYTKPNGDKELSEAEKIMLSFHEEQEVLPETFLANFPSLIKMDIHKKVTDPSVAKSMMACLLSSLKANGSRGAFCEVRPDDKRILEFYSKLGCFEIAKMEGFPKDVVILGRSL
Description: HEK293 cells inducible for P301L mutant human Tau (isoform 2N4R) were established at Janssen. Thiamet-G was used for both plate validation (high control) and as reference compound (reference EC50 assay validation). OGA inhibition is evaluated through the immunocytochemical (ICC) detection of O-GlcNAcylated proteins by the use of a monoclonal antibody (CTD110.6; Cell Signaling, #9875) detecting O-GlcNAcylated residues as previously described (Dorfmueller et al. 2010 Chemistry & biology, 17:1250). Inhibition of OGA will result in an increase of O-GlcNAcylated protein levels resulting in an increased signal in the experiment. Cell nuclei are stained with Hoechst to give a cell culture quality control and a rough estimate of immediate compounds toxicity, if any. ICC pictures are imaged with a Perkin Elmer Opera Phenix plate microscope and quantified with the provided software Perkin Elmer Harmony 4.1.
Cells were propagated in DMEM high Glucose (Sigma, #D5796) following standard procedures. 2 days before the cell assay cells are split, counted and seeded in Poly-D-Lysine (PDL) coated 96-wells (Greiner, #655946) plate at a cell density of 12,000 cells per cm^2 (4,000 cells per well) in 100 µl of Assay Medium (Low Glucose medium is used to reduce basal levels of GlcNAcylation) (Park et al. 2014 The Journal of biological chemistry 289:13519). At the day of compound test medium from assay plates was removed and replenished with 90 μl of fresh Assay Medium. 10 μl of compounds at a 10 fold final concentration were added to the wells. Plates were centrifuged shortly before incubation in the cell incubator for 6 hours. DMSO concentration was set to 0.2%. Medium is discarded by applying vacuum. For staining of cells medium was removed and cells washed once with 100 μl D-PBS (Sigma, #D8537). From next step onwards unless other stated assay volume was always 50 μl and incubation was performed without agitation and at room temperature. Cells were fixed in 50 μl of a 4% paraformaldehyde (PFA, Alpha aesar, # 043368) PBS solution for 15 minutes at room temperature. […] Before analysis samples were washed 2 times manually for 5 minutes in ICC base buffer.
Imaging is performed using Perkin Elmer Phenix Opera using a water 20× objective and recording 9 fields per well. Intensity readout at 488 nm is used as a measure of O-GlcNAcylation level of total proteins in wells. To assess potential toxicity of compounds nuclei were counted using the Hoechst staining. IC50-values are calculated using parametric non-linear regression model fitting. As a maximum inhibition Thiamet G at a 200 uM concentration is present on each plate. In addition, a concentration response of Thiamet G is calculated on each plate.

[1] = biological target: T2, recombinant human Meningioma Expressed Antigen 5 (MGEA5), also referred to as O-GlcNAcase (OGA) (Homo sapiens, UniProt O60502); assay: OGA biochemical assay (inhibition of FM-GlcNAc hydrolysis, fluorescence); conditions: for Emax: read-out: ENZYMATIC Emax (%); for IC50: read-out: ENZYMATIC hOGA, pIC50 (converted)
T2 construct: Full length OGA enzyme was purchased at OriGene (cat # TP322411); purchased OriGene TP322411
T2 sequence (O60502 1-916): T1 sequence (O60502 1-916)
Excerpt: The assay is based on the inhibition of the hydrolysis of fluorescein mono-β-D-N-Acetyl-Glucosamine (FM-GlcNAc) (Mariappa et al. 2015, Biochem J 470:255) by the recombinant human Meningioma Expressed Antigen 5 (MGEA5), also referred to as O-GlcNAcase (OGA). The hydrolysis FM-GlcNAc (Marker Gene technologies, cat # M1485) results in the formation of B-D-N-glucosamineacetate and fluorescein. The fluorescence of the latter can be measured at excitation wavelength 485 nm and emission wavelength 538 nm. An increase in enzyme activity results in an increase in fluorescence signal. Full length OGA enzyme was purchased at OriGene (cat # TP322411). The enzyme was stored in 25 mM Tris.HCl, pH 7.3, 100 mM glycine, 10% glycerol at −20° C. Thiamet G and GlcNAcStatin were tested as reference compounds (Yuzwa et al. 2008 Nature Chemical Biology 4:483; Yuzwa et al. 2012 Nature Chemical Biology 8:393). The assay was performed in 200 mM Citrate/phosphate buffer supplemented with 0.005% Tween-20. 35.6 g Na2HPO4 2 H2O (Sigma, # C0759) were dissolved in 1 L water to obtain a 200 mM solution. 19.2 g citric acid (Merck, # 1.06580) was dissolved in 1 L water to obtain a 100 mM solution. pH of the sodium phosphate solution was adjusted with the citric acid solution to 7.2. The buffer to stop the reaction consists of a 500 mM Carbonate buffer, pH 11.0. 734 mg FM-GlcNAc were dissolved in 5.48 mL DMSO to obtain a 250 mM solution and was stored at −20° C. OGA was used at 2 nM concentration and FM-GlcNAc at a 100 uM final concentration. Dilutions were prepared in assay buffer.
50 nl of a compound dissolved in DMSO was dispensed on Black Proxiplate™ 384 Plus Assay plates (Perkin Elmer, #6008269) and 3 μl fl-OGA enzyme mix added subsequently. Plates were pre-incubated for 60 min at room temperature and then 2 μl FM-GlcNAc substrate mix added. […] Plates were briefly centrifuged for 1 min at 1000rpm and incubate at room temperature for 6 h. To stop the reaction 5 μl STOP buffer were added and plates centrifuge again 1 min at 1000 rpm.
Fluorescence was quantified in the Thermo Scientific Fluoroskan Ascent or the PerkinElmer EnVision with excitation wavelength 485 nm and emission wavelength 538 nm.
For analysis a best-fit curve is fitted by a minimum sum of squares method. From this an IC50 value and Hill coefficient was obtained. High control (no inhibitor) and low control (saturating concentrations of standard inhibitor) were used to define the minimum and maximum values.

Emax (OGA) [%]	EC50 (OGA) [nM]	Emax [1] [%]	IC50 [1] [nM]	ENZYMATIC Emax (%) [1] [%]	SMILES
23.6	> 1000	98.1	170	–	Cc1cc(N2CCC3(CCN(Cc4ccc5scnc5c4)C3)C2)nc(C)n1 (centres unmarked) [Product 21]
68.9	389	101	30.2	–	Cc1cc(N2CCC3(CCN(C(C)c4ccc5c(c4)OCCO5)C3)C2)cc(C)n1 (centres unmarked) [Product 38]
19.5	> 10000	79	2690	–	CC(=O)Nc1cnc(N2CCC3(CCN(C(C)c4ccc5c(c4)OCO5)C3)C2)nc1 (centres unmarked) [Product 16]
–	–	90.6	562	–	CC(=O)Nc1ncc(CN2CCC3(CCN(Cc4cc(C)nc(C)c4)C3)C2)s1 (centres unmarked) [Product 17]
–	–	–	219	98.6	Cc1cc(N2CCC3(CCN(Cc4ccc5nccnc5c4)C3)C2)cc(C)n1 (single isomer, unassigned) [Product 5]
–	–	97.8	97.7	–	Cc1cc(N2CCC3(CCN(C(C)c4ccc5nccnc5c4)C3)C2)cc(C)n1 (centres unmarked) [Product 6]
–	–	97.1	309	–	COc1nc(C)ccc1N1CCC2(CCN(Cc3cnc(NC(C)=O)s3)C2)C1 (centres unmarked) [Product 53]
74.1	380	101	18.2	–	Cc1cc(N2CCC3(CCN(C(C)c4ccc5sc(C)nc5c4)C3)C2)cc(C)n1 (centres unmarked) [Product 29]
23.4	> 10000	98.8	224	–	Cc1cc(N2CCC3(CCN(Cc4ccc5nccnc5c4)C3)C2)cc(C)n1 (single isomer, unassigned) [Product 4]
73.4	380	101	19.1	–	CC(=O)Nc1ncc(CN2CCC3(CCN(c4cc(C)nc(C(F)(F)F)c4)C3)C2)s1 (centres unmarked) [Product 28]
–	–	102	33.9	–	CC(=O)Nc1ncc(CN2CCC3(CCN(c4ccc(C)nc4)C3)C2)s1 (centres unmarked) [Product 44]
–	–	101	10.2	–	CC(=O)Nc1ncc(CN2CCC3(CCN(c4cc(C)nc(C)c4)C3)C2)s1 (single isomer, unassigned) [Product 2]
–	–	96.6	100	–	Cc1cc(N2CCC3(CCN(C(C)c4ccc5c(c4)OCO5)C3)C2)cc(C)n1 (centres unmarked) [Product 8]
–	–	93.4	229	–	CC(c1ccc2nccnc2c1)N1CCC2(CCN(c3cncc(C4CC4)n3)C2)C1 (centres unmarked) [Product 15]
–	–	99.8	135	–	Cc1cc(N2CCC3(CCN(C(C)c4ccc5c(c4)OCO5)C3)C2)nc(C)n1 (centres unmarked) [Product 10]

The remaining lines, values behind:

SMILES	Emax (OGA) [%]	EC50 (OGA) [nM]	Emax [1] [%]	IC50 [1] [nM]	ENZYMATIC Emax (%) [1] [%]
CNc1cncc(N2CCC3(CCN(Cc4cnc(NC(C)=O)s4)C3)C2)n1 (centres unmarked) [Product 26]	25.1	> 1000	101	61.7	–
CC(=O)Nc1ncc(CN2CCC3(CCN(c4nc(C)cnc4C)C3)C2)s1 (centres unmarked) [Product 40]	–	–	98.4	66.1	–
CC(=O)Nc1ncc(CN2CCC3(CCN(c4ncc(F)cc4F)C3)C2)s1 (centres unmarked) [Product 46]	–	–	99	112	–
CC(=O)Nc1ncc(CN2CCC3(CCN(c4cc(C)c(C)cn4)C3)C2)s1 (centres unmarked) [Product 61]	94.6	117	102	28.2	–
CC(=O)Nc1ncc(CN2CCC3(CCN(c4cc(C)cnc4C)C3)C2)s1 (centres unmarked) [Product 50]	87.8	186	101	25.1	–
CC(=O)Nc1ncc(CN2CCC3(CCN(c4cncc(C)n4)C3)C2)s1 (centres unmarked) [Product 12]	–	–	101	34.7	–
COc1cc(C)cc(N2CCC3(CCN(Cc4cnc(NC(C)=O)s4)C3)C2)n1 (centres unmarked) [Product 66]	38.5	> 1000	99.7	69.2	–
CC(=O)Nc1ncc(CN2CCC3(CCN(c4nnc(C)cc4C)C3)C2)s1 (centres unmarked) [Product 55]	–	–	99	45.7	–
CC(=O)Nc1ncc(CN2CCC3(CCN(Cc4ccc(C(F)(F)F)cn4)C3)C2)s1 (centres unmarked) [Product 35]	–	–	84.4	2000	–
CC(=O)Nc1ncc(CN2CCC3(CCN(c4cncnc4)C3)C2)s1 (centres unmarked) [Product 43]	–	–	99.8	53.7	–
CC(=O)Nc1ncc(CN2CCC3(CCN(c4cnc(C)nc4)C3)C2)s1 (centres unmarked) [Product 45]	–	–	99.2	61.7	–
CC(=O)Nc1ncc(CN2CCC3(CCN(c4cc(F)ncc4C)C3)C2)s1 (centres unmarked) [Product 56]	–	–	100	51.3	–
CC(=O)Nc1ncc(CN2CCC3(CCN(c4nc(C)ncc4C)C3)C2)s1 (centres unmarked) [Product 54]	–	–	101	28.2	–
CC(=O)Nc1ncc(CN2CCC3(CCN(c4cnccn4)C3)C2)s1 (centres unmarked) [Product 11]	–	–	99.1	81.3	–
c1cnc2cc(CN3CCC4(CCN(c5cncc(C6CC6)n5)C4)C3)ccc2n1 (centres unmarked) [Product 14]	–	–	94.2	724	–
